Like-named read-outs stand apart in the source and are kept apart here. Each block holds one molecule with its values, some of them ahead of it.
Tests used:
[1] = test system: LOX; settings: peptidyl lysine oxidation by LOX; cited from earlier work
Description: An alternative approach for specific targeting of LOX involves the use of oligopeptides. Nagan and Kagan have investigated collagen-like structures to explore peptide sequences derived from the lysine-containing N- and C-terminal telopeptides of collagen concerning their enzymatic conversion by LOX. […] It was concluded that the aspartic acid located two positions ...

[2] = test system: EMT-6 tumors; type: in vivo, BALB/c mice
Description: Murine EMT-6 cells (5 × 10^6 cells in 100 μl of PBS) were injected into the upper left flank of female BALB/c mice (20–24 g; Charles River, Saint-Constant, QC, Canada). The EMT-6 tumor-bearing mice were imaged and used for ex vivo biodistribution experiments after allowing 7–10 days for the tumors to reach sizes of about 600 mm^3.
(§1) PET experiments were performed with [^18F]FB-GGGDPKGGGGG-NH2 injected into EMT-6 tumor-bearing BALB/c mice or into NIH-III mice bearing subcutaneous MCF-7 or MDA-MB-231 tumors, and tracer uptake was analyzed in vivo. For radiotracer injection, a catheter was placed into the tail vein of the mouse. While under anesthesia, mice were placed in the prone position with the medial axis parallel to the axial axis of the scanner and the thorax, abdomen and hind legs placed into the center of the field of view of the microPET R4 or Inveon PET/computed tomography (CT) scanner (Siemens Preclinical Solutions, Knoxville, TN, USA). A transmission scan for attenuation correction was not acquired. [^18F]FB-GGGDPKGGGGG-NH2 (4–5 MBq) in 100–150 μl of saline was injected intravenously through the catheter into the tail vein. The effects of BAPN were analyzed after intraperitoneal injection of 2 mg (100 mg/kg) of the inhibitor 4 h and 24 h before radiotracer injection. For the different experimental protocols, either an emission scan 60 min postinjection (dynamic experiments) was performed immediately or a 20 min postinjection PET scan acquisition (static scan followed by CT scan) was performed. Depending on the experimental setup, data acquisition continued for either 60 min or 20 min in three-dimensional list mode. The dynamic list mode data were sorted into sinograms with 53 time frames (10×2 s, 8×5 s, 6×10 s, 6×20 s, 8×60 s, 10×120 s and 5×300 s). The frames were reconstructed using ordered subset expectation maximization or maximum a posteriori reconstruction modes.
(§2) The pixel size was 0.085×0.085×0.12 cm, and the resolution in the center field of view was 1.8 mm. Correction for partial volume effects was not performed. The image files were further processed using the ROVER v2.0.51 software (ABX, Radeberg, Germany). Masks defining three-dimensional regions of interest (ROIs) were set, and the ROIs were defined by 50 % thresholding. Mean standardized uptake values (SUVmean = [activity/ml tissue]/[injected activity/body weight], mL/kg] were calculated for each ROI. Time–activity curves (TACs) were generated for the dynamic scans only. All semiquantified PET data are presented as mean ± SEM.

[3] = design: species or system BALB/c mice; settings: mouse, in vivo
Description: (§3) Normal BALB/c mice received injections of approximately 25 MBq of [^18F]FB-GGGDPKGGGG. Venous blood samples were taken at 5, 15, 30 and 60 min postinjection and processed for determination of metabolic stability in vivo. Blood cells were separated by centrifugation (13,000 rpm for 5 min). Proteins in the supernatant were precipitated by addition of 2 volume parts of methanol followed by a second centrifugation step (13,000 rpm for 5 min). Radioactivity in blood components (cells, proteins and plasma) was measured using a Wallac Wizard 1480 3 automatic gamma counter. The clear plasma supernatant was examined using a Shimadzu HPLC system (Shimadzu Scientific Instruments, Columbia, MD, USA) equipped with a DGU-20A5 degasser, a SIL-20AHT autosampler, a LC-20AT pump, a SPD-M20A photo diode array detector and a RAMONA* radiodetector (Raytest Isotopenmessgeraete, Straubenhardt, Germany). The samples were analyzed using a Phenomenex Luna 10-μm C18(2) 100 Å, 250×4.6-mm column and the following gradients with water/0.2 % TFA as solvent A and acetonitrile as solvent B: 0–3 min 10 % B, 10 min 30 % B, 17 min 50 % B, 23 min 70 % B and 27–30 min 90 % B. The flow was constant at 1 ml/min, and the ultraviolet signals were measured at 210 nm and 254 nm.

[4] = test system: MDA-MB-231 tumors; type: in vivo, NIH-III nu/nu mice
Description: (§4) The pellet was implanted subcutaneously into the upper right flank to provide a constant level of 17β-estradiol needed by the estrogen receptor (ER)-positive MCF-7 cells. Tumors were imaged 20–30 days after injection, with the tumors reaching sizes ranging from 200 to 400 mm^3. Human MDA-MB-231 cells (1×10^6 cells in 100 μl of PBS) were also injected subcutaneously into 8–10-week-old female NIH-III nu/nu mice. After 7–9 days, they reached a size of approximately 500 mm^3 and were suitable for the PET experiments.
as §1, with “Depending on the experimental setup, data acquisition continued for either 60 min or 20 min in three-dimensional list mode. The dynamic list mode data were sorted into sinograms with 53 time frames (10×2 s, 8×5 s, 6×10 s, 6×20 s, 8×60 s, 10×120 s and 5×300 s). The frames were reconstructed using ordered subset expectation maximization or maximum a posteriori reconstruction modes.” left out
(§5) The pixel size was 0.085×0.085×0.12 cm, and the resolution in the center field of view was 1.8 mm. […] Mean standardized uptake values (SUVmean = [activity/ml tissue]/[injected activity/body weight], mL/kg] were calculated for each ROI. Time–activity curves (TACs) were generated for the dynamic scans only. All semiquantified PET data are presented as mean ± SEM.

[5] = Radio-HPLC of plasma samples and quality control (retention time); type: physicochemical; settings: Luna C18(2) 250×4.6 mm, water/0.2 % TFA - acetonitrile gradient, 1 ml/min; two more lipophilic radiometabolites eluted at 13.2 and 14.3 min
Description: as §3

[6] = test system: breast cancer tumor models; type: in vivo, mice; settings: for tumor-to-blood ratio / tumor-to-muscle ratio: tumor model not stated
Description: as §1, §2

[7] = test system: MCF-7 tumors; type: in vivo, NIH-III nu/nu mice
Description: Human MCF-7 cells, which form xenografts in female athymic mice, were injected subcutaneously (2–5×10^6 cells in 100 μl of PBS) into 8–10-week-old female NIH-III nu/nu mice (Charles River, Wilmington, MA, USA). Before injection of the cells, all mice received a 0.72-mg pellet containing 17β-estradiol in a 60-day release preparation (Innovative Research of America, Sarasota, FL, USA).
as §4
PET experiments were performed with [^18F]FB-GGGDPKGGGGG-NH2 injected into EMT-6 tumor-bearing BALB/c mice or into NIH-III mice bearing subcutaneous MCF-7 or MDA-MB-231 tumors, and tracer uptake was analyzed in vivo. For radiotracer injection, a catheter was placed into the tail vein of the mouse. While under anesthesia, mice were placed in the prone position with the medial axis parallel to the axial axis of the scanner and the thorax, abdomen and hind legs placed into the center of the field of view of the microPET R4 or Inveon PET/computed tomography (CT) scanner (Siemens Preclinical Solutions, Knoxville, TN, USA). A transmission scan for attenuation correction was not acquired. […] The effects of BAPN were analyzed after intraperitoneal injection of 2 mg (100 mg/kg) of the inhibitor 4 h and 24 h before radiotracer injection. […]
as §5

Molecule: Ac-GGGDPKGGGGG-NH2 [oligopeptide substrate with favorable kinetic properties for LOX-mediated peptidyl lysine oxidation (Nagan and Kagan)]
Michaelis constant (Km) among several collagen N-telopeptide derivatives [1]: lowest | kcat/Km among several collagen N-telopeptide derivatives [1]: highest

Molecule: N#CCCN [BAPN, β-aminopropionitrile, reference compound]
reduction of maximum tumor uptake of the radiotracer (SUV5min) ([2]; EMT-6 tumor, 100 mg/kg BAPN (about 2 mg per mouse) i.p. 4 h before [18F]FB-GGGDPKGGGGG-NH2): approximately 33% | effect on radiotracer tumor uptake at 60 min postinjection ([2]; EMT-6 tumor, BAPN predosing 4 h or 24 h): no effect | effect on radioactivity in muscle tissue ([2]; muscle of EMT-6 tumor-bearing mice, BAPN predosing): unaltered

share of injected radiotracer found in the plasma compartment [3]: > 60% | SUV60min, muscle tissue ([4]; mouse, in vivo): 0.04±0.004 | HPLC retention time [5]: 12.2 min | SUV60min, muscle tissue ([2]; mouse, in vivo): 0.03±0.004 | time to maximum SUV in tumor ([6]; mouse, in vivo): 3 to 5 min | SUV60min, muscle tissue ([7]; mouse, in vivo): 0.05±0.008
Molecule: [^18F]FB-GGGDPKGGGGG-NH2 [[^18F]fluorobenzoate-GGGDPKGGGGG-NH2, 18F-labeled LOX-targeting oligopeptide PET radiotracer]
SUV5min, tumor ([4]; MDA-MB-231 tumor, 4-5 MBq i.v., 5 min postinjection, mean ± SEM, n = 5): 0.50±0.09 | SUV60min, tumor ([4]; MDA-MB-231 tumor, 60 min postinjection, mean ± SEM, n = 5): 0.12±0.02 | SUV5min, tumor ([2]; EMT-6 tumor, 4-5 MBq i.v., 5 min postinjection, mean ± SEM, n = 4): 0.63±0.08 | SUV60min, tumor, in the absence and presence of BAPN ([2]; EMT-6 tumor, 60 min postinjection, control and BAPN-predosed groups): 0.19–0.21 | SUV60min, tumor ([2]; EMT-6 tumor, 60 min postinjection, mean ± SEM, n = 4): 0.19±0.02 | SUV5min, tumor, in the presence of BAPN ([2]; EMT-6 tumor, BAPN i.p. 24 h before radiotracer, mean ± SEM, n = 7, p > 0.05): 0.52±0.05 | tumor-to-blood ratio ([6]; 5 min postinjection): 0.3 | tumor-to-muscle ratio ([6]; 5 min postinjection): 2.7 | tumor-to-blood ratio ([6]; 60 min postinjection): 2.3 | tumor-to-muscle ratio ([6]; 60 min postinjection): 1 | SUV5min, tumor ([7]; MCF-7 tumor, 4-5 MBq i.v., 5 min postinjection, mean ± SEM, n = 6): 0.59±0.03 | SUV60min, tumor ([7]; MCF-7 tumor, 60 min postinjection, mean ± SEM, n = 6): 0.12±0.02

— publication PMC4533939, “Targeting lysyl oxidase for molecular imaging in breast cancer” (Breast Cancer Research : BCR, 2015)
